Legend:
Type in all cases: cell-based
Details in all cases: 24 hours of compound treatment, 50 nM and 500 nM tested (concentration behind the class not stated)
WEE1 = target: T1, WEE1 (Homo sapiens, UniProt P30291+Q96SW2); assay: Western-blot assay of substrate protein degradation in hPBMCs, WEE1
T1 construct: endogenous in cells; host or cells: hPBMCs (Milecell Biotechnologies)

IKZF3 = target: T2, IKZF3 (Homo sapiens, UniProt Q96SW2+Q9UKT9); assay: Western-blot assay of substrate protein degradation in hPBMCs, IKZF3
T2 construct: endogenous in cells; host or cells: hPBMCs (Milecell Biotechnologies)

CK1α = target: T3, CK1α (Homo sapiens, UniProt P48729+Q96SW2); assay: Western-blot assay of substrate protein degradation in hPBMCs, CK1α
T3 construct: endogenous in cells; host or cells: hPBMCs (Milecell Biotechnologies)

IKZF1 = target: T4, IKZF1 (Homo sapiens, UniProt Q13422+Q96SW2); assay: Western-blot assay of substrate protein degradation in hPBMCs, IKZF1
T4 construct: endogenous in cells; host or cells: hPBMCs (Milecell Biotechnologies)

GSPT1 = target: T5, GSPT1 (Homo sapiens, UniProt P15170+Q96SW2); assay: Western-blot assay of substrate protein degradation in hPBMCs, GSPT1
T5 construct: endogenous in cells; host or cells: hPBMCs (Milecell Biotechnologies)

IKZF2 = target: T6, IKZF2 (Homo sapiens, UniProt Q96SW2+Q9UKS7); assay: Western-blot assay of substrate protein degradation in hPBMCs, IKZF2
T6 construct: endogenous in cells; host or cells: hPBMCs (Milecell Biotechnologies)
T6 sequence (Q9UKS7 whole entry): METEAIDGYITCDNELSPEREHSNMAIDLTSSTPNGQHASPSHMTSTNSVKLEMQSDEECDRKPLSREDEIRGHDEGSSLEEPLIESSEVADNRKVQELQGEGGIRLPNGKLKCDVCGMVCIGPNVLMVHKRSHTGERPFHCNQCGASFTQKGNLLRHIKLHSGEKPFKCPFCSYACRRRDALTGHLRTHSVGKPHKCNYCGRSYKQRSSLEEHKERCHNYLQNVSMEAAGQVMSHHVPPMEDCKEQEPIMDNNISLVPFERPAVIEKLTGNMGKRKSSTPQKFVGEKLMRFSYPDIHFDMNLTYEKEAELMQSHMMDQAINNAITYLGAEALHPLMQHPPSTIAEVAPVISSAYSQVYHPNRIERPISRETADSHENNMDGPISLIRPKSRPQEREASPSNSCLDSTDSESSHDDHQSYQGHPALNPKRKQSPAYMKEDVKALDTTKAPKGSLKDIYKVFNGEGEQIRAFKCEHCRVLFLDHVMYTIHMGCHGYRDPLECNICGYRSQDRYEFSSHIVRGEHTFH
T6 sequence (Q96SW2 whole entry): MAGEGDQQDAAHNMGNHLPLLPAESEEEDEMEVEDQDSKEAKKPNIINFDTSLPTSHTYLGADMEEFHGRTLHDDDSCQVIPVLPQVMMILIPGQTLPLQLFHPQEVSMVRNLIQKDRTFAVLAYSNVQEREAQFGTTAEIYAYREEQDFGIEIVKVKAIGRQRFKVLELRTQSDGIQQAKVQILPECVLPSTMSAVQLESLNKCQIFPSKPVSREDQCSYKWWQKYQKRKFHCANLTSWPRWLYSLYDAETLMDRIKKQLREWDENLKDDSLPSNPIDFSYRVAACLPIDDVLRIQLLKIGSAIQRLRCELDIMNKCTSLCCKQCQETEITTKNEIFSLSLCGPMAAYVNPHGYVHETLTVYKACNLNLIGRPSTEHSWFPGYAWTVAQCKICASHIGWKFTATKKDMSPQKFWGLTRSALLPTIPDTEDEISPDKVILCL
T6 sequence (Q16531 whole entry partner): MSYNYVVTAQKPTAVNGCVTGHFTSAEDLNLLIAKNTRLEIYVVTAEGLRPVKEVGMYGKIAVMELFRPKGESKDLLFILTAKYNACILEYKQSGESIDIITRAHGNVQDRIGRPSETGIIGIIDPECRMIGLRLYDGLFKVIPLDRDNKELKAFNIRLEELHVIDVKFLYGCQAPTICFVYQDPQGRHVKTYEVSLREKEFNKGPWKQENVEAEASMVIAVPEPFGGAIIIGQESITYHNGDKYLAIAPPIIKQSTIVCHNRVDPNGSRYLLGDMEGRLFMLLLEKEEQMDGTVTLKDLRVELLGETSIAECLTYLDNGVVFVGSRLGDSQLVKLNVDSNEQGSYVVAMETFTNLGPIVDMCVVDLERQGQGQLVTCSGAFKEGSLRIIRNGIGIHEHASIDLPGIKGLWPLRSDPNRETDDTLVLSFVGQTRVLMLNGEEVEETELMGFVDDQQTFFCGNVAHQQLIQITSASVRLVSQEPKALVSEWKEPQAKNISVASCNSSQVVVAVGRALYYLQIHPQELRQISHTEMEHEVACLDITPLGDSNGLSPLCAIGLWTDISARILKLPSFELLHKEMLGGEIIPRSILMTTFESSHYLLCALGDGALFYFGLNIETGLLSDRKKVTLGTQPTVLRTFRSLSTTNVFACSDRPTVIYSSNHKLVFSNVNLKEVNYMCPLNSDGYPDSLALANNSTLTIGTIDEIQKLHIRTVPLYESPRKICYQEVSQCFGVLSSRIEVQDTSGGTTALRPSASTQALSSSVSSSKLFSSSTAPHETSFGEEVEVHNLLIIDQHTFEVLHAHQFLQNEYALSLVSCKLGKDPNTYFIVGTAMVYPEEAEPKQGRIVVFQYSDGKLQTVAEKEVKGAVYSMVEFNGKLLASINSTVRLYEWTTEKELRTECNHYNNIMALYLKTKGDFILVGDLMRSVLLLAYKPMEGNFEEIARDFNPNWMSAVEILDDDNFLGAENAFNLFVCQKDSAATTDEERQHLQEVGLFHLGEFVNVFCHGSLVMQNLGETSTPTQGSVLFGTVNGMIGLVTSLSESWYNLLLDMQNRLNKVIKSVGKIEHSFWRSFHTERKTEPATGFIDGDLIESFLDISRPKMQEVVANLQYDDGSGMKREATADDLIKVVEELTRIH

T2 sequence (Q9UKT9 whole entry): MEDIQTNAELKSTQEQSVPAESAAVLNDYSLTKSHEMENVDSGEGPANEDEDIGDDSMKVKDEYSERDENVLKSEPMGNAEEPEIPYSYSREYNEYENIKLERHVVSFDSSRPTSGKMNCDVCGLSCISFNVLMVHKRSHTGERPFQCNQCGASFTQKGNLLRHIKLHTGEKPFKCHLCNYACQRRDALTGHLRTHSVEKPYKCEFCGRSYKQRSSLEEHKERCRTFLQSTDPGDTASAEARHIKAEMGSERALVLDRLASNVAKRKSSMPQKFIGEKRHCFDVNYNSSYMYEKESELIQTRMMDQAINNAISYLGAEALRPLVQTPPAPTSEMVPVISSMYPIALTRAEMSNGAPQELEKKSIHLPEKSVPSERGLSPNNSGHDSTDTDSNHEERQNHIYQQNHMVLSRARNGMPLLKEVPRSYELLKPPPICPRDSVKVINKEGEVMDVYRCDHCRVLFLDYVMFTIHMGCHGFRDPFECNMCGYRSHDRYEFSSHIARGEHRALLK
T2 sequence (Q96SW2 whole entry): as the sequence (Q96SW2 whole entry) above
T2 sequence (Q16531 whole entry partner): as the sequence (Q16531 whole entry partner) above
T4 sequence (Q13422 whole entry): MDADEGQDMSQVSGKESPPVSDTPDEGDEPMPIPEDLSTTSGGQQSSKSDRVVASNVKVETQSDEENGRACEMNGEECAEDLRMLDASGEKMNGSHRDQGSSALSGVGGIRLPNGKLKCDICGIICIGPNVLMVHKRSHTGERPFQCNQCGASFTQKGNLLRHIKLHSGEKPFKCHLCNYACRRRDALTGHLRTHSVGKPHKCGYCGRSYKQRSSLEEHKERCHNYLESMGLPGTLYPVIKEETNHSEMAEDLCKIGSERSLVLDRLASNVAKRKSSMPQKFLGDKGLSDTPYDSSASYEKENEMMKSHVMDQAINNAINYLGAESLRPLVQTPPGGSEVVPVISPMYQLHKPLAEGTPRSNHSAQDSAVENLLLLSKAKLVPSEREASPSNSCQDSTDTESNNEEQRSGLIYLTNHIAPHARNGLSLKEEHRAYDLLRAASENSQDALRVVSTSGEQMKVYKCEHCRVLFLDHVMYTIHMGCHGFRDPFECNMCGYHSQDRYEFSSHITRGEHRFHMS
T4 sequence (Q96SW2 whole entry): as the sequence (Q96SW2 whole entry) above
T4 sequence (Q16531 whole entry partner): as the sequence (Q16531 whole entry partner) above
T3 sequence (P48729 whole entry): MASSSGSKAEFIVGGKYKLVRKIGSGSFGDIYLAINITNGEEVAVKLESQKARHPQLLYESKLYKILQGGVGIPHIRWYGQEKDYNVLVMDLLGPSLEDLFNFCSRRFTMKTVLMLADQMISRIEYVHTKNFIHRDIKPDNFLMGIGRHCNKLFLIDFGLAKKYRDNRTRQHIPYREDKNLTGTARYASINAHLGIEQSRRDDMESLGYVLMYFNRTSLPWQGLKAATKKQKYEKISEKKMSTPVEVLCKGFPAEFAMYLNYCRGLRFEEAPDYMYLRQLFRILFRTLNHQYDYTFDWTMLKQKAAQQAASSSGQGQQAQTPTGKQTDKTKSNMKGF
T3 sequence (Q96SW2 whole entry): as the sequence (Q96SW2 whole entry) above
T3 sequence (Q16531 whole entry partner): as the sequence (Q16531 whole entry partner) above
T1 sequence (P30291 whole entry): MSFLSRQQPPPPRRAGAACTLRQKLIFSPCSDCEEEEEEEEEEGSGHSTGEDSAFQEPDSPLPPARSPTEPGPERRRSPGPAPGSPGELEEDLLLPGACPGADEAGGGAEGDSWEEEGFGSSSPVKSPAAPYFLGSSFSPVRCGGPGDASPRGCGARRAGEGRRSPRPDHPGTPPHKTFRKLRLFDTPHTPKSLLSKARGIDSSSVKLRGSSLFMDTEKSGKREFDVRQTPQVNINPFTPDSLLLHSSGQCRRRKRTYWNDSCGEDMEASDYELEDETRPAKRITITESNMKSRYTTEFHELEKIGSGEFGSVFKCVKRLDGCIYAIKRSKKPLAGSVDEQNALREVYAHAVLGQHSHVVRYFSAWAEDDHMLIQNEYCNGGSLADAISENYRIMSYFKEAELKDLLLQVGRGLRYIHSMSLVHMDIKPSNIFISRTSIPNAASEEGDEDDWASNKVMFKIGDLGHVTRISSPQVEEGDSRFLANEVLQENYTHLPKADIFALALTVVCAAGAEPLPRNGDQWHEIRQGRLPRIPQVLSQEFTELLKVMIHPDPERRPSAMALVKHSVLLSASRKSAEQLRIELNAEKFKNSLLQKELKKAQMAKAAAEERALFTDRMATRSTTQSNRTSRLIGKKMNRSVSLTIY
T1 sequence (Q96SW2 whole entry): as the sequence (Q96SW2 whole entry) above
T1 sequence (Q16531 whole entry partner): as the sequence (Q16531 whole entry partner) above

SMILES	Weel substrate protein remaining % (WEE1)	IKZF3 substrate protein remaining % (IKZF3)	CK1a substrate protein remaining % (CK1α)	IKZF 1 substrate protein remaining % (IKZF1)	GSPT1 substrate protein remaining % (GSPT1)	IKZF2 substrate protein remaining % (IKZF2)
O=C1CCC(N2C(=O)c3ccc(CN4CCN(c5ccc(Cl)cn5)CC4)cc3C2=O)C(=O)N1 (stereo not drawn) [GT-06524, 5-((4-(5-chloropyridin-2-yl)piperazin-1-yl)methyl)-2-(2,6-dioxopiperidin-3-yl)isoindoline-1,3-dione]	B (80%< substrate protein remaining %≤ 100%)	B (80%< substrate protein remaining %≤ 100%)	B (80%< substrate protein remaining %≤ 100%)	A (0% ≤ substrate protein remaining % ≤ 80%)	A (0% ≤ substrate protein remaining % ≤ 80%)	B (80%< substrate protein remaining %≤ 100%)
O=C1CCC(N2C(=O)c3ccc(CN4CCN(c5cc(Cl)ccn5)CC4)cc3C2=O)C(=O)N1 (stereo not drawn) [GT-06525, 5-((4-(4-chloropyridin-2-yl)piperazin-1-yl)methyl)-2-(2,6-dioxopiperidin-3-yl)isoindoline-1,3-dione]	A (0% ≤ substrate protein remaining % ≤ 80%)	A (0% ≤ substrate protein remaining % ≤ 80%)	B (80%< substrate protein remaining %≤ 100%)	B (80%< substrate protein remaining %≤ 100%)	A (0% ≤ substrate protein remaining % ≤ 80%)	A (0% ≤ substrate protein remaining % ≤ 80%)
O=C1CCC(N2C(=O)c3ccc(CN4CCN(c5ncccc5F)CC4)cc3C2=O)C(=O)N1 (stereo not drawn) [GT-06526, 2-(2,6-dioxopiperidin-3-yl)-5-((4-(3-fluoropyridin-2-yl)piperazin-1-yl)methyl)isoindoline-1,3-dione]	A (0% ≤ substrate protein remaining % ≤ 80%)	A (0% ≤ substrate protein remaining % ≤ 80%)	B (80%< substrate protein remaining %≤ 100%)	B (80%< substrate protein remaining %≤ 100%)	A (0% ≤ substrate protein remaining % ≤ 80%)	A (0% ≤ substrate protein remaining % ≤ 80%)
O=C1CCC(N2C(=O)c3ccc(CN4CCN(c5cccc(F)n5)CC4)cc3C2=O)C(=O)N1 (stereo not drawn) [GT-06527, 2-(2,6-dioxopiperidin-3-yl)-5-((4-(6-fluoropyridin-2-yl)piperazin-1-yl)methyl)isoindoline-1,3-dione]	A (0% ≤ substrate protein remaining % ≤ 80%)	A (0% ≤ substrate protein remaining % ≤ 80%)	B (80%< substrate protein remaining %≤ 100%)	B (80%< substrate protein remaining %≤ 100%)	A (0% ≤ substrate protein remaining % ≤ 80%)	A (0% ≤ substrate protein remaining % ≤ 80%)
O=C1CCC(N2C(=O)c3ccc(CN4CCN(c5ccc(F)cn5)CC4)cc3C2=O)C(=O)N1 (stereo not drawn) [GT-06528, 2-(2,6-dioxopiperidin-3-yl)-5-((4-(5-fluoropyridin-2-yl)piperazin-1-yl)methyl)isoindoline-1,3-dione]	A (0% ≤ substrate protein remaining % ≤ 80%)	A (0% ≤ substrate protein remaining % ≤ 80%)	B (80%< substrate protein remaining %≤ 100%)	B (80%< substrate protein remaining %≤ 100%)	A (0% ≤ substrate protein remaining % ≤ 80%)	A (0% ≤ substrate protein remaining % ≤ 80%)
O=C1CCC(N2C(=O)c3ccc(CN4CCN(c5ncccc5C(F)(F)F)CC4)cc3C2=O)C(=O)N1 (stereo not drawn) [GT-06529, 2-(2,6-dioxopiperidin-3-yl)-5-((4-(3-(trifluoromethyl)pyridin-2-yl)piperazin-1-yl)methyl)isoindoline-1,3-dione]	A (0% ≤ substrate protein remaining % ≤ 80%)	A (0% ≤ substrate protein remaining % ≤ 80%)	B (80%< substrate protein remaining %≤ 100%)	B (80%< substrate protein remaining %≤ 100%)	A (0% ≤ substrate protein remaining % ≤ 80%)	A (0% ≤ substrate protein remaining % ≤ 80%)
O=C1CCC(N2C(=O)c3ccc(CN4CCN(c5cccc(C(F)(F)F)n5)CC4)cc3C2=O)C(=O)N1 (stereo not drawn) [GT-06530, 2-(2,6-dioxopiperidin-3-yl)-5-((4-(6-(trifluoromethyl)pyridin-2-yl)piperazin-1-yl)methyl)isoindoline-1,3-dione]	B (80%< substrate protein remaining %≤ 100%)	B (80%< substrate protein remaining %≤ 100%)	B (80%< substrate protein remaining %≤ 100%)	B (80%< substrate protein remaining %≤ 100%)	A (0% ≤ substrate protein remaining % ≤ 80%)	B (80%< substrate protein remaining %≤ 100%)
O=C1CCC(N2C(=O)c3ccc(CN4CCN(c5ccc(C(F)(F)F)cn5)CC4)cc3C2=O)C(=O)N1 (stereo not drawn) [GT-06531, 2-(2,6-dioxopiperidin-3-yl)-5-((4-(5-(trifluoromethyl)pyridin-2-yl)piperazin-1-yl)methyl)isoindoline-1,3-dione]	B (80%< substrate protein remaining %≤ 100%)	B (80%< substrate protein remaining %≤ 100%)	B (80%< substrate protein remaining %≤ 100%)	B (80%< substrate protein remaining %≤ 100%)	A (0% ≤ substrate protein remaining % ≤ 80%)	B (80%< substrate protein remaining %≤ 100%)
O=C1CCC(N2C(=O)c3ccc(CN4CCN(c5ncc(Cl)cc5Cl)CC4)cc3C2=O)C(=O)N1 (stereo not drawn) [GT-06532, 5-((4-(3,5-dichloropyridin-2-yl)piperazin-1-yl)methyl)-2-(2,6-dioxopiperidin-3-yl)isoindoline-1,3-dione]	B (80%< substrate protein remaining %≤ 100%)	B (80%< substrate protein remaining %≤ 100%)	B (80%< substrate protein remaining %≤ 100%)	B (80%< substrate protein remaining %≤ 100%)	A (0% ≤ substrate protein remaining % ≤ 80%)	B (80%< substrate protein remaining %≤ 100%)
O=C1CCC(N2C(=O)c3ccc(CN4CCN(c5nccc(I)c5F)CC4)cc3C2=O)C(=O)N1 (stereo not drawn) [GT-06533, 2-(2,6-dioxopiperidin-3-yl)-5-((4-(3-fluoro-4-iodopyridin-2-yl)piperazin-1-yl)methyl)isoindoline-1,3-dione]	B (80%< substrate protein remaining %≤ 100%)	B (80%< substrate protein remaining %≤ 100%)	B (80%< substrate protein remaining %≤ 100%)	B (80%< substrate protein remaining %≤ 100%)	A (0% ≤ substrate protein remaining % ≤ 80%)	B (80%< substrate protein remaining %≤ 100%)

From patent EP4745137A1 (Gluetacs Therapeutics (Shanghai) Co., Ltd., priority 2023, dated 2025)
